# Reference: publication PMC7185411 (Biochimica et Biophysica Acta. Proteins and Proteomics, 2015)
# Like-named read-outs stand apart in the source and are kept apart here. Marks after values point to notes of the source that are not given here. Residues, ends and D or L forms follow the SMILES beside them. *: point of attachment. Cbz = O=C(OCc1ccccc1)*
# What was measured:
# [1] = biological target: Chymotrypsin; settings: read-out: Ki(obs), cited from earlier work
# [2] = biological target: Chymotrypsin; assay: Binding of inhibitors to chymotrypsin; assay type: biochemical; settings: for KiIH/KiICHO or KiIH/KiICOCHO: fold increase in binding due to aldehyde or glyoxal group; for KiIH/KiICOOH: pH 7.2, ratio of Ki(obs) of peptide-H to peptide-COOH
# [3] = cited from earlier work; for KH1: KH1 = KH1obs/[H2O], 25 °C
# [4] = tested on: α-Chymotrypsin; settings: equilibrium constant for hemiketal formation; cited from earlier work
# [5] = hydration of glyoxal keto group
KiIH/KiICHO or KiIH/KiICOCHO [2],fold tighter binding on replacing the α-carboxylate group with a hydrogen atom [2],KiIH/KiICOOH [2],Compound,Ki ([1]; 25 °C) [µM],KH1 [3],KH1(obs) ([3]; hydration of aldehyde group),KHK [4],"Ki ([1]; pH 7.2, 25 °C) [µM]","KH1(obs) [3, 5]",KiIH/KiICHO or KiIH/KiICOCHO ([2]; listed as Z-APF-COCHO)
100,–,–,"C[C@H](NC(=O)OCc1ccccc1)C(=O)N[C@@H](C)C(=O)N[C@@H](Cc1ccccc1)C(=O)C=O [ZAAF-CHO, Z-Ala-Ala-Phe-CHO]",1.7 ± 0.4,0.25,13.9 ^e,–,–,–,–
455,–,–,CC(NC(=O)OCc1ccccc1)C(=O)NC(C)C(=O)NC(Cc1ccccc1)C(=O)C=O (stereo not shown) [ZAAF-COCHO],–,0.0284,–,1170,0.365,1.58 ^d,–
–,–,–,"CC(NC(=O)OCc1ccccc1)C(=O)N1CCCC1C(=O)NC(C=O)Cc1ccccc1 (stereo not drawn) [ZAPF-H, Z-Ala-Pro-Phe-H] (Cbz-Ala-Pro-Phe-aldehyde; configuration not given here)",–,–,–,–,77.4 ± 6.4,–,–
–,3–4 fold,0.31,Cbz-Ala-Ala-Phe-OH [ZAAF-COOH],–,–,–,–,532 ± 50,–,–
–,3–4 fold,0.32,Cbz-Ala-Pro-Phe-OH [ZAPF-COOH],–,–,–,–,241 ± 7,–,–

Compound,KiIH/KiICHO or KiIH/KiICOCHO [2],fold tighter binding on replacing the α-carboxylate group with a hydrogen atom [2],KiIH/KiICOOH [2],Ki ([1]; 25 °C) [µM],KH1 [3],KH1(obs) ([3]; hydration of aldehyde group),KHK [4],"Ki ([1]; pH 7.2, 25 °C) [µM]","KH1(obs) [3, 5]",KiIH/KiICHO or KiIH/KiICOCHO ([2]; listed as Z-APF-COCHO)
C[C@H](NC(=O)OCc1ccccc1)C(=O)N1CCC[C@H]1C(=O)N[C@@H](Cc1ccccc1)C(=O)C=O [ZAPF-COCHO],2310,–,–,–,0.023,–,5270,0.0335,1.28 ^c,460–2300
